Data as given in patent US20240174655A1, “INDAZOLE DERIVATIVES AS ANTAGONISTS OF THE MUSCARINIC ACETYLCHOLINE RECEPTOR M4” (Vanderbilt University, priority 2021, published 2024).
Where two headings read alike, the source gives them in different places.

Biological target: T1, Human M4 (Homo sapiens, UniProt P08173)
T1 construct: expressed in transfected cells; host or cells: CHO-K1 (Chinese hamster ovary, ATCC), stably expressing M4 and Gqi5
T1 sequence (P08173 1-479): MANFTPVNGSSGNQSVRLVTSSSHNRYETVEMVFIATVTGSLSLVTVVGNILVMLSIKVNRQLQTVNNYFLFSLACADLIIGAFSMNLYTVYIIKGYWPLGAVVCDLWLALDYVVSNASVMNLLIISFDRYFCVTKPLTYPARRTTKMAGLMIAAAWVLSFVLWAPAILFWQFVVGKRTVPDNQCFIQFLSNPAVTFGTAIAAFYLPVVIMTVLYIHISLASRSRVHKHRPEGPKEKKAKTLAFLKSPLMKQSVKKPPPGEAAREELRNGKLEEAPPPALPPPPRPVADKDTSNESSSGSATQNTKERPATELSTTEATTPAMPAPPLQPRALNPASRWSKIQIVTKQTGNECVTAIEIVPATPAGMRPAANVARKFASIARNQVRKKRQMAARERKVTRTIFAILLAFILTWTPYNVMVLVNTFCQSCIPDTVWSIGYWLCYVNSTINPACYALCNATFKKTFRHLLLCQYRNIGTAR
Assay: mAChR M4 cell-based functional assay (calcium flux, EC80 acetylcholine response)
Procedure: Human or rat M4 cDNA, along with the chimeric G protein Gqi5, were transfected into Chinese hamster ovary (CHO-K1) cells purchased from the American Type Culture Collection using Lipofectamine2000. M4/Gqi5/CHO cells were grown in Ham's F-12 medium containing […] heat-inactivated fetal bovine serum (FBS), 20 mM HEPES, 500 μg/mL G418 sulfate, and 200 μg/mL Hygromycin B.
For high throughput measurement of agonist-evoked increases in intracellular calcium, CHO-K1 cells stably expressing muscarinic receptors were plated in growth medium lacking G418 and hygromycin at 15,000 cells/20 μL/well in Greiner 384-well black-walled, tissue culture (TC)-treated, clear-bottom plates (VWR). Cells were incubated overnight at 37° C. and 500 CO2. […] Compound master plates were formatted in a 10 point concentration-response curve (CRC) format (1:3 dilutions) in 100% DMSO with a starting concentration of 10 or 1 mM using a BRAVO liquid handler (Agilent). Test compound CRCs were then transferred to daughter plates (240 nL) using the Echo acoustic plate reformatter (Labcyte, Sunnyvale, CA) and then diluted into assay buffer (40 μL) to a 2× stock using a Thermo Fisher Combi (Thermo Fisher Scientific, Waltham, MA).
Calcium flux was measured using the Functional Drug Screening System (FDSS) 6000 or 7000 (Hamamatsu Corporation, Tokyo, Japan) as an increase in the fluorescent static ratio. Compounds were applied to cells (20 μL, 2×) using the automated system of the FDSS at 2 seconds into the protocol and the data were collected at 1 Hz. […] Agonist activity was analyzed as a concentration-dependent increase in calcium mobilization upon compound addition. Positive allosteric modulator activity was analyzed as a concentration-dependent increase in the EC20 acetylcholine response. Antagonist activity was analyzed as a concentration-dependent decrease in the EC80 acetylcholine response; for the purposes of the tables herein, an IC50 (inhibitory concentration 50) was calculated as a concentration-dependent decrease of the response elicited by an EC80 concentration of acetylcholine. Concentration-response curves were generated using a four-parameter logistical equation in XLFit curve fitting software (IDBS, Bridgewater, NJ) for Excel (Microsoft, Redmond, WA) or Prism (GraphPad Software, Inc., San Diego, CA) or the Dotmatics software platform (Dotmatics, Bishop's Stortford, UK).
Compounds were synthesized as described above.

[1] = M4/Gqi5/CHO-K1 cells, % ACh maximum at 30 μM, read-out: Human M4 Emin (% ACh maximum at 30 μM)
[2] = M4/Gqi5/CHO-K1 cells, decrease of the response to an EC80 concentration of acetylcholine, read-out: Human M4 IC50

Row | Structure (SMILES) | remaining activity at 30 µM [1] [%] | IC50 [2] [nM] | IC50 [nM] | remaining activity at 30 µM (CHO-K1, read-out: Human M4 Emin (% ACh maximum at 30 μM)) [%]
1 | [2H]C([2H])(C1CCOC(C)(C)C1)N1C[C@H]2C[C@H](Nc3ccc(-c4ccc5nn(C)cc5c4C)nn3)C[C@H]2C1 (stereo partly drawn) [compound 18, (3aR,5s,6aS)-N-(6-(2,4-dimethyl-2H-indazol-5-yl)pyridazin-3-yl)-2-((2,2-dimethyltetrahydro-2H-pyran-4-yl)methyl-d2)octahydrocyclopenta[c]pyrrol-5-amine] | 4 | 0.99 |  | 
2 | [2H]C([2H])(C1CC(C)(C)OC(C)(C)C1)N1C[C@H]2C[C@H](Nc3ccc(-c4ccc5nn(C)cc5c4C)nn3)C[C@H]2C1 [compound 19, (3aR,5s,6aS)-N-(6-(2,4-dimethyl-2H-indazol-5-yl)pyridazin-3-yl)-2-((2,2,6,6-tetramethyltetrahydro-2H-pyran-4-yl)methyl-d2)octahydrocyclopenta[c]pyrrol-5-amine] | 5 | 5 |  | 
3 | [2H]C([2H])(N1C[C@H]2C[C@H](Nc3ccc(-c4ccc5nn(C)cc5c4C)nn3)C[C@H]2C1)C1(F)CCOCC1 [compound 20, (3aR,5s,6aS)-N-(6-(2,4-dimethyl-2H-indazol-5-yl)pyridazin-3-yl)-2-((4-fluorotetrahydro-2H-pyran-4-yl)methyl-d2)octahydrocyclopenta[c]pyrrol-5-amine] | 4 | 0.99 |  | 
4 | Cc1c(-c2nnc(N[C@H]3C[C@@H]4CN(CC5CCOCC5)C[C@@H]4C3)c3ccsc23)ccc2nn(C)cc12 [compound 25, 7-(2,4-dimethyl-2H-indazol-5-yl)-N-((3aR,5s,6aS)-2-((tetrahydro-2H-pyran-4-yl)methyl)-octahydrocyclopenta[c]pyrrol-5-yl)-thieno[2,3-d]pyridazin-4-amine] |  |  | 0.5 | 7

Now from value to compound, other results behind:

Row | remaining activity at 30 µM [1] [%] | IC50 [2] [nM] | Structure (SMILES) | IC50 [nM] | remaining activity at 30 µM (CHO-K1, read-out: Human M4 Emin (% ACh maximum at 30 μM)) [%]
5 | 3 | 0.4 | [2H]C1([2H])CC(C([2H])([2H])N2C[C@H]3C[C@H](Nc4ccc(-c5ccc6nn(C)cc6c5C)nn4)C[C@H]3C2)CC([2H])([2H])O1 [compound 21, (3aR,5s,6aS)-N-(6-(2,4-dimethyl-2H-indazol-5-yl)pyridazin-3-yl)-2-((tetrahydro-2H-pyran-4-yl-2,2,6,6-d4)methyl-d2)octahydrocyclopenta[c]pyrrol-5-amine] |  | 
6 | 4 | 0.65 | [2H]C([2H])(C1CCOCC1)N1C[C@H]2C[C@H](Nc3ccc(-c4ccc5nn(C([2H])([2H])[2H])cc5c4C(F)F)nn3)C[C@H]2C1 [compound 22, (3aR,5s,6aS)-N-(6-(4-(difluoromethyl)-2-(methyl-d3)-2H-indazol-5-yl)pyridazin-3-yl)-2-((tetrahydro-2H-pyran-4-yl)methyl-d2)octahydrocyclopenta[c]pyrrol-5-amine] |  | 
7 | 4 | 1.8 | [2H]C([2H])(N1C[C@H]2C[C@H](Nc3ccc(-c4ccc5nn(C)cc5c4C)nn3)C[C@H]2C1)C(F)(F)C1CCOCC1 [compound 23, (3aR,5s,6aS)-2-(2,2-difluoro-2-(tetrahydro-2H-pyran-4-yl)ethyl-1,1-d2)-N-(6-(2,4-dimethyl-2H-indazol-5-yl)-pyridazin-3-yl)octahydrocyclopenta[c]pyrrol-5-amine] |  | 
8 | 3 | 0.21 | [2H]C1([2H])CC(C([2H])([2H])N2C[C@H]3C[C@H](Nc4nnc(-c5ccc6nn(C)cc6c5C)cc4C)C[C@H]3C2)CC([2H])([2H])O1 [compound 24, (3aR,5s,6aS)-N-(6-(2,4-dimethyl-2H-indazol-5-yl)-4-methylpyridazin-3-yl)-2-((tetrahydro-2H-pyran-4-yl-2,2,6,6-d4)methyl-d2)octahydrocyclopenta[c]pyrrol-5-amine] |  | 
9 | 4 | 0.79 | COc1cc(-c2ccc3nn(C)cc3c2C)nnc1N[C@H]1C[C@@H]2CN(CC3CCOCC3)C[C@@H]2C1 [compound 26, (3aR,5s,6aS)-N-(6-(2,4-dimethyl-2H-indazol-5-yl)-4-methoxypyridazin-3-yl)-2-((tetrahydro-2H-pyran-4-yl)-methyl)octahydrocyclopenta[c]pyrrol-5-amine] |  | 
